Tests used:
SK-OV-3/CBP = assay: MTT viability assay in carboplatin-resistant SK-OV-3/CBP cells; type: cell-based, human; settings: 72 h; resistant subline vs parental line
Description: (§1) Cells were seeded (2 × 10^4 cells/well for HCT116, HCT116/OxR, 3 × 10^4 cells/well for HCT116 p53KO, 4 × 10^4 cells/well for MES-OV, SK-OV-3, and their respective CBP resistant counterparts) in 100 μL/well in 96-well plates and allowed to attach for 24 h at 37 °C and 5% CO2. Compounds were first dissolved in DMSO to a 10 mM stock solution and then further diluted in a growth medium (DMSO concentration <1%). After 24 h, cells were treated with 100 μL of different drugs dilutions in triplicates with the final concentrations of 0, 0.01, 0.05, 0.075, 0.1, 0.5, 0.75, 1, 2.5, 5, 7.5, and 10 μM depending on the compound and the cell line.

MES-OV/CBP = assay: MTT viability assay in carboplatin-resistant MES-OV/CBP cells; type: cell-based, human; settings: 72 h; resistant subline vs parental line
Description: as §1

HCT116 WT/OxR = assay: MTT viability assay in oxaliplatin-resistant HCT116 WT/OxR cells; type: cell-based, human; settings: 72 h; resistant subline vs parental line
Description: as §1

recombinant rat TrxR = molecular target: T1, recombinant rat TrxR (Rattus norvegicus, UniProt O89049); assay: Inhibition of mammalian TrxR (microplate reader-based DTNB assay); type: biochemical; settings: cell-free assay
T1 construct: purchased Cayman Chemical
T1 sequence (O89049 1-499): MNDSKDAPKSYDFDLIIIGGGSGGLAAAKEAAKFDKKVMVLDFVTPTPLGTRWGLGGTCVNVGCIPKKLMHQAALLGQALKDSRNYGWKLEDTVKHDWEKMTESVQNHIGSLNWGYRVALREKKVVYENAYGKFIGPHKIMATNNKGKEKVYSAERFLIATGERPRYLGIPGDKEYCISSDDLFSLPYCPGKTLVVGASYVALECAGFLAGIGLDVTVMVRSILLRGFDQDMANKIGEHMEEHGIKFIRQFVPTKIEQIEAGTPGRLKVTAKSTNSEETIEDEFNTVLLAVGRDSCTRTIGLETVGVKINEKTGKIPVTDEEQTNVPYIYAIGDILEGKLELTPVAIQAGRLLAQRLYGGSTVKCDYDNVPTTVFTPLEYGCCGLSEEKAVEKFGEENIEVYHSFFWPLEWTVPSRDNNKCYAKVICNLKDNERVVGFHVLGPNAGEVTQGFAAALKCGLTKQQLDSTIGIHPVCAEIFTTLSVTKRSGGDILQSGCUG
Description: To determine the inhibition of mammalian TrxR, an established microplate reader-based assay was performed. For this purpose, commercially available recombinant rat TrxR (from Cayman Chemical) was used and diluted with distilled water to achieve a concentration of 0.12 U mL^–1. The compounds were freshly dissolved as stock solutions in DMSO. Aliquots (25 μL) of the enzyme solution and 25 μL of potassium phosphate buffer (pH 7.0) containing the compounds in graded concentrations (1% DMSO) were mixed. Positive controls were composed of 25 μL aliquots of the enzyme solution mixed with 25 μL 1% DMSO in buffer solution (no compounds). The final concentration of DMSO was 0.5% v/v in all samples. The blank solution was the highest used concentration of the compound in 0.5% DMSO in buffer solution (no enzyme). All resulting solutions were incubated with moderate shaking for 75 min at 37 °C in a 96-well plate. […] After proper mixing, the formation of 2-nitro-5-thiobenzoate (5-TNB) was monitored with a microplate reader at 405 nm 10 times in 35 s intervals for about 6 min. The increase in 5-TNB concentration over time followed a linear trend, and the enzymatic activities were calculated as the slopes (increase in absorbance per second) thereof. […] For the absorption measurements in the enzyme assay, a PerkinElmer 2030 Multilabel Reader VICTORTMX4 was used.

MES-OV cells [1] = assay: Mitochondrial membrane potential by JC-1 stain (flow cytometry); type: cell-based, human; settings: 24 h, 10 μM
Description: (§2) Cells were seeded in a density of (2–4) × 10^5 cells/well in six-well plates and in 1 mL culture medium containing 10% FBS. After 24 h recovery, cells were treated with the indicated compounds and concentrations. Next, the supernatant was collected followed by trypsinization of the cells and centrifugation at 300g for 5 min. In the following protocols, cells were stained with annexin V (AV) and propidium iodide (PI) for cell death analysis, with only PI for cell cycle analysis, or with 10 μg mL^–1 JC-1 for evaluation of the mitochondrial membrane potential as previously described.[54],[55]

MES-OV cells [2] = assay: ROS detection by DCF-DA flow cytometry in MES-OV; type: cell-based, human; settings: 24 h
Description: Cells were seeded 5 × 10^5 cells/mL in six-well plates. After 24 h treatment with the indicated concentration, cells were incubated with 10 μM 2′,7′-dichlorofluorescein diacetate (DCFH-DA, Sigma-Aldrich) in Hank’s balanced salt solution for 1 h at 37 °C. Subsequently, flow cytometry (with BD LSR Fortessa instrument, BD Biosciences, Franklin Lakes, NJ, USA) was performed to measure the median fluorescence signal of 20,000 single cells per sample. FlowJo (BD Biosciences, San Jose, CA, USA) and GraphPad Prism software (GraphPad Software Inc., San Diego, CA, USA) were to analyze the data.

SK-OV-3 = assay: Cell death by annexin V/propidium iodide stain (flow cytometry); type: cell-based, human; settings: SK-OV-3, 10 μM, 24 h
Description: as §2

[3] = Stability in PBS by LC-ESI(+)-HRMS/MS; type: physicochemical; settings: 80 μM in PBS, monitored 48 h
Description: For the stability evaluation in PBS, 10 mM solutions of complexes 1, 4, and 7 were first prepared in DMSO. Two microliters of this solution were then added to PBS (250 μL) for a total concentration of 80 μM. Following centrifugation for 10 min at 3000 rpm, the resulting solutions were monitored by LC-ESI(+)-MS and LC-ESI(+)-HRMS for a period of 48 h.

MES-OV cells [4] = assay: TEM analysis of subcellular morphology; type: cell-based, human; settings: 24 h treatment
Description: MES-OV Cells were seeded (8 × 10^5 cells/mL) in […] in six-well plates. After 24 h, cells were treated with the selected compounds at the indicated concentration for another 24 h. Afterward, cells were collected, pelleted, and fixed in a solution of 2.5% glutaraldehyde and 2% paraformaldehyde in 0.1 M cacodylate buffer (pH 7.4) for 2 h at room temperature. Samples were subsequently washed 3 × 10 min in cacodylate buffer and postfixed in 1% osmium tetroxide for 1 h. After 3 × 10 min washing in cacodylate buffer, samples were dehydrated in an ethanol series (30–100%, 10 min each) and pure acetone (2 × 10 min) and gradually embedded in Epon 812 resin (Serva). Sections (40–50 nm) were prepared with a Leica UC7 ultramicrotome, mounted on copper mesh grids, and contrasted with 1% uranyl acetate (7 min) and 3% lead citrate (3 min). Imaging was performed with a Tecnai G2 20 transmission electron microscope at 80 kV equipped with an FEI Eagle 4K CCD camera (Center for Anatomy and Cell Biology). Image processing was performed in Fiji[57] using the CLAHE filter (enhance local contrast).

MES-OV cells [5] = assay: Phase-contrast microscopy of cytoplasmic vacuoles; type: cell-based, human; settings: 6 and 24 h treatment
Description: Cells were seeded 5 × 10^5/well in six-well plates after 24 h recovery treatment with compounds 1, 4, and 7 was performed with the indicated concentrations. After 6 and 24 h, phase-contrast images of the cells were taken with a Zeiss Primovert microscope (20× magnification). To determinate the percentage of vacuolated cells, images (three images each condition) were analyzed by ImageJ, and vacuolated cells were counted.

SK-OV-3 and MES-OV cells = assay: Cell cycle distribution (PI stain, flow cytometry); type: cell-based, human; settings: 10 μM, 24 h
Description: as §2

In the case of `O=S(=O)([O-])C(F)(F)F.[Ag+].c1ccc(-c2ccccn2)nc1.c1ccc(P(c2ccccc2)c2ccccc2)cc1` [Compound 1, [Ag(2,2′-bipy)(PPh3)][CF3SO3]], the “relative resistance (IC50 SK-OV-3/CBP divided by IC50 SK-OV-3)” value (SK-OV-3/CBP) is reported as 1.6^n.s, the “relative resistance (IC50 MES-OV/CBP divided by IC50 MES-OV)” value (MES-OV/CBP) is reported as 1.0^n.s and the “relative resistance (IC50 HCT116 WT/OxR divided by IC50 HCT116 WT)” value (HCT116 WT/OxR) is reported as 0.7^n.s. The “TrxR inhibition strength relative to 7” value (recombinant rat TrxR) was 10 fold, the “cells with mitochondrial depolarization (low Δψ fraction)” value (MES-OV cells [1]) was 50% and the “ROS levels (in words)” value (MES-OV cells [2]) was “significant and very strong elevation in ROS was found only in the 10 μM sample”. The “apoptosis induction (AV/PI)” value (SK-OV-3) was “up to 100%”, the “stability in PBS” value [3] was “an equilibrium is established between the parent complex and AgP2 and AgN2 species” and the “vacuole diameter (TEM)” value (MES-OV cells [4]) was 300–500 nm. The “cytoplasmic vacuole formation (phase contrast)” value (MES-OV cells [5]) was “distinctly fewer vesicles of smaller and distinctive shapes” and the “cell cycle distribution change” value (SK-OV-3 and MES-OV cells) was “significant shift from the G0–G1 phase to the S phase”.
